# Test results published in PubChem BioAssay (NCI).
#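 Growth conditions: 96-well plates. Treatment: test compound, 48 hours, 5 concentrations. Analysis: linear interpolation between bracketing concentrations; unreached endpoints set to highest concentration. At the TGI there is no net growth.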
# How the values were obtained:
# Test in all cases: inhibition of tumour cell growth, NCI panel, 48 h
# [1] = tested on: 786-0 renal
# [2] = tested on: A498 renal
# [3] = tested on: A549 NSCLC
# [4] = tested on: ACHN renal
# [5] = tested on: BT-549 breast
# [6] = tested on: CAKI-1 renal
# [7] = tested on: CCRF-CEM leukemia
# [8] = tested on: COLO 205 colon
# [9] = tested on: DU-145 prostate
# [10] = tested on: EKVX NSCLC
# [11] = tested on: HCC-2998 colon
# [12] = tested on: HCT-116 colon
# [13] = tested on: HCT-15 colon
# [14] = tested on: HL-60(TB) leukemia
# [15] = tested on: HOP-62 NSCLC
# [16] = tested on: HOP-92 NSCLC
# [17] = tested on: HS 578T breast
# [18] = tested on: HT29 colon
# [19] = tested on: IGROV1 ovarian
# [20] = tested on: K-562 leukemia
# [21] = tested on: KM12 colon
# [22] = tested on: LOX IMVI melanoma
# [23] = tested on: M14 melanoma
# [24] = tested on: MALME-3M melanoma
# [25] = tested on: MCF7 breast
# [26] = tested on: MDA-MB-231 breast
# [27] = tested on: MDA-MB-435
# [28] = tested on: MDA-N
# [29] = tested on: MOLT-4 leukemia
# [30] = tested on: NCI-H226 lung
# [31] = tested on: NCI-H23 lung
# [32] = tested on: NCI-H460 lung
# [33] = tested on: NCI-H522 lung
# [34] = tested on: NCI/ADR-RES ovarian
# [35] = tested on: OVCAR-3 ovarian
# [36] = tested on: OVCAR-4 ovarian
# [37] = tested on: OVCAR-5 ovarian
# [38] = tested on: OVCAR-8 ovarian
# [39] = tested on: PC-3 prostate
# [40] = tested on: RPMI-8226 leukemia
# [41] = tested on: RXF 393 renal
# [42] = tested on: SF-268 CNS
# [43] = tested on: SF-295 CNS
# [44] = tested on: SF-539 CNS
# [45] = tested on: SK-MEL-2 melanoma
# [46] = tested on: SK-MEL-28 melanoma
# [47] = tested on: SK-MEL-5 melanoma
# [48] = tested on: SK-OV-3 ovarian
# [49] = tested on: SN12C renal
# [50] = tested on: SNB-19 CNS
# [51] = tested on: SNB-75 CNS
# [52] = tested on: SR leukemia
# [53] = tested on: SW-620 colon
# [54] = tested on: T-47D breast
# [55] = tested on: TK-10 renal
# [56] = tested on: U251 CNS
# [57] = tested on: UACC-257 melanoma
# [58] = tested on: UACC-62 melanoma
# [59] = tested on: UO-31 renal
structure (smiles),measurement,setting,value
Cc1ccc(C(=O)CCl)o1,TGI,[1],9.71 µM
same,TGI,[2],> 10 µM
same,TGI,[3],> 10 µM
same,TGI,[4],> 10 µM
same,TGI,[5],> 10 µM
same,TGI,[6],> 7.23 µM
same,TGI,[7],> 7.83 µM
same,TGI,[8],> 8.18 µM
same,TGI,[9],> 10 µM
same,TGI,[10],> 10 µM
same,TGI,[11],> 10 µM
same,TGI,[12],6.62 µM
same,TGI,[13],> 10 µM
same,TGI,[14],4.22 µM
same,TGI,[15],> 10 µM
same,TGI,[16],> 10 µM
same,TGI,[17],> 10 µM
same,TGI,[18],> 10 µM
same,TGI,[19],> 10 µM
same,TGI,[20],> 10 µM
same,TGI,[21],> 10 µM
same,TGI,[22],8.76 µM
same,TGI,[23],> 10 µM
same,TGI,[24],> 8.31 µM
same,TGI,[25],> 10 µM
same,TGI,[26],> 10 µM
same,TGI,[27],> 10 µM
same,TGI,[28],> 10 µM
same,TGI,[29],5.68 µM
same,TGI,[30],> 10 µM
same,TGI,[31],> 10 µM
same,TGI,[32],> 10 µM
same,TGI,[33],> 5.46 µM
same,TGI,[34],> 10 µM
same,TGI,[35],> 10 µM
same,TGI,[36],> 10 µM
same,TGI,[37],> 9.57 µM
same,TGI,[38],> 6.61 µM
same,TGI,[39],> 10 µM
same,TGI,[40],5.42 µM
same,TGI,[41],> 10 µM
same,TGI,[42],> 10 µM
same,TGI,[43],> 10 µM
same,TGI,[44],> 10 µM
same,TGI,[45],> 10 µM
same,TGI,[46],> 10 µM
same,TGI,[47],> 10 µM
same,TGI,[48],> 10 µM
same,TGI,[49],> 10 µM
same,TGI,[50],> 10 µM
same,TGI,[51],> 10 µM
same,TGI,[52],> 10 µM
same,TGI,[53],5 µM
same,TGI,[54],> 7.79 µM
same,TGI,[55],> 10 µM
same,TGI,[56],> 10 µM
same,TGI,[57],> 10 µM
same,TGI,[58],> 10 µM
same,TGI,[59],> 6.21 µM
COc1ccc(/C=C/C(=O)Oc2ccc(/C=C3\CCCCC3=O)cc2)cc1,TGI,[1],> 100 µM
same,TGI,[2],> 100 µM
same,TGI,[3],> 100 µM
same,TGI,[4],> 100 µM
same,TGI,[5],> 100 µM
same,TGI,[6],> 100 µM
same,TGI,[7],6.77 µM
same,TGI,[8],> 93.2 µM
same,TGI,[9],> 100 µM
same,TGI,[10],> 100 µM
same,TGI,[11],> 72.3 µM
same,TGI,[12],> 95.4 µM
same,TGI,[13],> 100 µM
same,TGI,[14],> 83.6 µM
same,TGI,[15],> 77.3 µM
same,TGI,[16],> 100 µM
same,TGI,[17],> 100 µM
same,TGI,[18],26.3 µM
same,TGI,[19],> 100 µM
same,TGI,[20],> 100 µM
same,TGI,[21],> 100 µM
same,TGI,[22],> 100 µM
same,TGI,[23],> 100 µM
same,TGI,[24],> 100 µM
same,TGI,[25],> 100 µM
same,TGI,[26],> 83.9 µM
same,TGI,[27],> 100 µM
same,TGI,[28],> 100 µM
same,TGI,[29],7.51 µM
same,TGI,[30],> 100 µM
same,TGI,[31],> 100 µM
same,TGI,[32],> 100 µM
same,TGI,[33],> 100 µM
same,TGI,[34],> 100 µM
same,TGI,[35],> 100 µM
same,TGI,[36],> 90.2 µM
same,TGI,[37],> 100 µM
same,TGI,[38],> 100 µM
same,TGI,[39],> 100 µM
same,TGI,[40],13.9 µM
same,TGI,[41],> 100 µM
same,TGI,[42],> 69.5 µM
same,TGI,[43],49.4 µM
same,TGI,[44],> 100 µM
same,TGI,[45],> 100 µM
same,TGI,[46],> 100 µM
same,TGI,[47],> 100 µM
same,TGI,[48],> 100 µM
same,TGI,[49],> 100 µM
same,TGI,[50],> 100 µM
same,TGI,[51],> 100 µM
same,TGI,[52],> 100 µM
same,TGI,[53],> 100 µM
same,TGI,[54],> 100 µM
same,TGI,[55],> 100 µM
same,TGI,[56],> 100 µM
same,TGI,[57],> 100 µM
same,TGI,[58],> 100 µM
same,TGI,[59],> 100 µM
